The values below are quoted from earlier work in US7037523B2, “Controlled release compositions for macrolide antimicrobial agents” (Wockhardt Limited, priority 2001, dated 2006).

The conditions of data set [1]: normal gastric pH of 1.0–2.0.

In the case of `CC[C@H]1OC(=O)[C@H](C)[C@@H](O[C@H]2C[C@@](C)(OC)[C@@H](O)[C@H](C)O2)[C@H](C)[C@@H](O[C@@H]2O[C@H](C)C[C@H](N(C)C)[C@H]2O)[C@](C)(OC)C[C@@H](C)C(=O)[C@H](C)[C@@H](O)[C@]1(C)O` [Clarithromycin], the solubility in water result was “practically insoluble”. The “degradation in acidic medium” value in data set [1] is “degrades rapidly”.
